According to patent US20070264674A1, “Cytochrome P450 Induction Assay” (priority 2004, published 2007):

Key:
hCAR [1] = biological target: T1, hCAR (Homo sapiens, UniProt Q14994); test: SEAP reporter assay in HepG2 cells co-transfected with human CAR; type: cell-based; set-up: A 1047 bp nucleic acid encoding the human CAR (hCAR) obtained from the RT-PCR; expressed in transfected cells; host or cells: HepG2 (transient co-transfection with the reporter plasmid); conditions: HepG2 + human CAR (constitutive activation); 48 h; 200 μM Omeprazole, 6 μM Clotrimazole, 125 nM Hyperforin, 12.5 μM Lovastatin, 100 μM N-propyl-p-hydroxy-benzoate
T1 sequence (Q14994 1-348 isoform Q14994-2): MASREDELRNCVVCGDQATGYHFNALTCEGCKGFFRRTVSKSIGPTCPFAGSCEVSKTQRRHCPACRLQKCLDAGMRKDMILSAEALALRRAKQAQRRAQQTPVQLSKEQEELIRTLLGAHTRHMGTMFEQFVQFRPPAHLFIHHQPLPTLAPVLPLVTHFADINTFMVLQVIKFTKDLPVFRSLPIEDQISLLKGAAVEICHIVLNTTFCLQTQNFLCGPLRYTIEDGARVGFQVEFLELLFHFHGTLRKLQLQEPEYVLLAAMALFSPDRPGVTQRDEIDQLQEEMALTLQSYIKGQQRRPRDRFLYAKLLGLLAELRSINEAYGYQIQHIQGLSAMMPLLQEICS
Method: The NR donor plasmid encoding the human CAR was made as follows. The human CAR was made by RT-PCR from a human liver mRNA preparation. […] The RT-PCR conditions were 15 seconds at 94° C., 30 cycles of 94° C. for 30 seconds followed by 68° C. for 3 minutes, then 68° C. for 3 minutes, and storage at 4° C.
Controls omitted the DNA encoding the human CAR. Additional controls consisted of DNA encoding the human PXR of the previous example.
After incubating the cells 48 hours at 37° C., the medium form wells were collected for SEAP assays. The assays for SEAP expression were performed with Tropix Phospha-Light system kit.

hCAR [2] = biological target: T1, hCAR; test: Primary rat hepatocytes cotransfected with clone 102-SEAP and hCAR; type: cell-based; set-up: expressed in transfected cells; host or cells: primary rat hepatocytes (transient co-transfection, Effectene); conditions: 10 μM Rifampicin, 1 μM CITCO, 1 mM Phenobarbital, 48 h
Method: (§1) After four hours, cell culture medium was changed with 1 mL Williams E medium containing Pen/Strep, glutamine and ITS+Premix and the cells were incubated overnight under normal growth condition.
(§2) This was followed by adding 3.2 μL Enhancer and mixing by vortexing for 1 second. […] The cotransfections were followed by adding 3.2 μL Enhancer and mixing by vortexing for 1 second. The transfections/cotransfections were incubated at room temperature for 5 minutes. Then, the mixtures were centrifuged for a few seconds to remove drops from the top of the tube. Next, to each of the mixtures, five μL of Effectene Transfection Reagent was added and the mixtures mixed by vortexing for 10 seconds. The mixtures were then incubated for ten minutes at room temperature to allow transfection complex formation.
(§3) Meanwhile, the growth medium for each of the wells of the 24-well plate containing the cells was removed from the wells and the cells in the wells washed once with 1 mL of growth medium. Then, 350 μL of fresh growth medium was added to each of the wells and 350 μL of growth medium was added to each of the tubes of transfection complexes, which were then mixed and immediately added drop-wise onto the cells in the well. The plates were gently swirled to ensure uniform distribution of the transfection complexes over the cells. […]

hPXR = biological target: T2, hPXR (Homo sapiens, UniProt O75469); test: Primary rat hepatocytes cotransfected with clone 102-SEAP and hPXR; conditions: 10 μM Rifampicin, 1 μM CITCO, 1 mM Phenobarbital, 48 h
T2 sequence (O75469 1-434): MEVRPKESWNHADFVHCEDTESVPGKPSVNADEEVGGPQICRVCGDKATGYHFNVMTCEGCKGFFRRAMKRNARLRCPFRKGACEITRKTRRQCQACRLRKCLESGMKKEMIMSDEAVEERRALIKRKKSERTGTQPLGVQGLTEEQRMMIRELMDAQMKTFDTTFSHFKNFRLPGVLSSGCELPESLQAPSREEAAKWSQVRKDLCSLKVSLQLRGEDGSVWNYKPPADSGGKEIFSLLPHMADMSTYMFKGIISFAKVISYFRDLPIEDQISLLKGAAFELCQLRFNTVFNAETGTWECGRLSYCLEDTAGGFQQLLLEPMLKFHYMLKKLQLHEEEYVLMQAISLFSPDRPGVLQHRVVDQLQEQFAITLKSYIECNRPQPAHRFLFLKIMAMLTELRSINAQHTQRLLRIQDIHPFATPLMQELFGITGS
Method: as §1, §2, §3

[3] = test system: endogenous rat CAR or PXR; test: Primary rat hepatocytes transfected with clone 102-SEAP and pUC19 (control, no nuclear receptor); conditions: clone 102-SEAP + pUC19, 10 μM Rifampicin, 1 μM CITCO, 1 mM Phenobarbital, 48 h
Method: as §1, §2, §3

Structure (SMILES) | effect on transcription from clone 102-SEAP composite promoter (hCAR [1]) | effect on transcription from ΔCYP3A4 promoter (hCAR [1]) | other results
CCCOC(=O)c1ccc(O)cc1 [N-propyl-p-hydroxy-benzoate] | not affected | moderate inhibition | 
Clc1ccccc1C(c1ccccc1)(c1ccccc1)n1ccnc1 [Clotrimazole] | inhibitory effect | inhibitory effect | 
CC[C@H](C)C(=O)O[C@H]1C[C@@H](C)C=C2C=C[C@H](C)[C@H](CC[C@@H]3C[C@@H](O)CC(=O)O3)[C@H]21 [Lovastatin] | not affected |  | 
Clc1ccc(-c2nc3sccn3c2C=NOCc2ccc(Cl)c(Cl)c2)cc1 [CITCO, 6-(4-Chlorophenyl)imidazo[2,1-b][1,3]thiazole-5-carbaldehyde O-(3,4-dichlorobenzyl)oxime] |  |  | induction of clone 102-SEAP expression via hCAR (hCAR [2]): about 4.2 fold
CCC1(c2ccccc2)C(=O)NC(=O)NC1=O [Phenobarbital] |  |  | induction of clone 102-SEAP expression via hPXR (hPXR): about 3.4 fold; induction of clone 102-SEAP without co-transfected nuclear receptor [3]: no response
